Data: patent publication US6753335B2, “Quinolinyl-piperidin-4-ylidene-methyl-benzamide derivatives for the treatment of pain” (AstraZeneca AB, priority 2000, dated 2004)

Experiments:
Format in all cases: biochemical
cloned human δ receptor = molecular target: T1, cloned human δ receptor (Homo sapiens, UniProt P41143); assay: GTP[γ]35S binding functional assay, membranes from HEK-293S cells expressing cloned human opioid receptors (HDELTA)
T1 construct: expressed in transfected cells; host or cells: human 293S (HEK-293S) cells, geneticin-selected
T1 sequence (P41143 whole entry): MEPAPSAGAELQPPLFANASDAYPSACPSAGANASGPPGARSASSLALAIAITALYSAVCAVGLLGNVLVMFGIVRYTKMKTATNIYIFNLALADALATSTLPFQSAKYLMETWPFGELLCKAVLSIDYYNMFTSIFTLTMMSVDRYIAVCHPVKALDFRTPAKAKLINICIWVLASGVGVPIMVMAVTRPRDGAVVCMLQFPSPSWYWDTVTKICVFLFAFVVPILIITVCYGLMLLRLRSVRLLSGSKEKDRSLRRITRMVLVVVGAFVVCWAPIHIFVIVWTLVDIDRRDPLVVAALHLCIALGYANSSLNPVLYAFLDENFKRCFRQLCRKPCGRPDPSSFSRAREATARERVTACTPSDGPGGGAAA
Protocol: A. Human 293S cells expressing cloned human μ, δ, and κ receptors and neomycin resistance were grown in suspension at 37° C. and 5% CO2 in shaker flasks containing calcium-free DMEM10% FBS, 5% BCS, 0.1% Pluronic F-68, and 600 μg/ml geneticin.
Cells were pelleted and resuspended in lysis buffer (50 mM Tris, pH 7.0, 2.5 mM EDTA, with PMSF added just prior to use to 0.1 mM from a 0.1 M stock in ethanol), incubated on ice for 15 min, then homogenized with a polytron for 30 sec. The suspension was spun at 1000 g (max) for 10 min at 4° C. The supernatant was saved on ice and the pellets resuspended and spun as before. The supernatants from both spins were combined and spun at 46,000 g (max) for 30 min. The pellets were resuspended in cold Tris buffer (50 mM Tris/Cl, pH 7.0) and spun again. The final pellets were resuspended in membrane buffer (50 mM Tris, […], pH 7.0). Aliquots (1 ml) in polypropylene tubes were frozen in dry ice/ethanol and stored at −70° C. until use. The protein concentrations were determined by a modified Lowry assay with sodium dodecyl sulfate.
(§1) The agonist activity of the compounds is measured by determining the degree to which the compounds receptor complex activates the binding of GTP to G-proteins to which the receptors are coupled. In the GTP binding assay, GTP[γ]^35S is combined with test compounds and membranes from HEK-293S cells expressing the cloned human opioid receptors or from homogenised rat and mouse brain. Agonists stimulate GTP[γ]^35S binding in these membranes. The EC50 and Emax values of compounds are determined from dose-response curves. Right shifts of the dose response curve by the delta antagonist naltindole are performed to verify that agonist activity is mediated through delta receptors.

[1] = molecular target: T2, delta receptors, mouse brain (Mus musculus, UniProt P32300); assay: GTP[γ]35S binding functional assay, homogenised mouse brain membranes
T2 construct: from tissue; host or cells: mouse brain homogenate
T2 sequence (P32300 whole entry): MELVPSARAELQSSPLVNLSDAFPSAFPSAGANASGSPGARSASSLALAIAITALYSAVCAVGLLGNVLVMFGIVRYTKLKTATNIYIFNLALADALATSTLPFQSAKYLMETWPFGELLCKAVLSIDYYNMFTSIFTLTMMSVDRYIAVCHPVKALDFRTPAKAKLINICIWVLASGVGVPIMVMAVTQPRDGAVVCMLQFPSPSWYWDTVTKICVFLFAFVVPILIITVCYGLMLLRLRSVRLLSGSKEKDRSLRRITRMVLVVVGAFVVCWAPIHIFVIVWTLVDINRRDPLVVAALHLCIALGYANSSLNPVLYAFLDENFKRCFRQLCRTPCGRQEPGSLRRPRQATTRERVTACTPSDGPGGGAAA
Protocol: (§2) B. Mouse and rat brains were weighed and rinsed in ice-cold PBS (containing 2.5 mM EDTA, pH 7.4). The brains were homogenized with a polytron for 15 sec (mouse) or 30 sec (rat) in ice-cold lysis buffer (50mM Tris, pH 7.0, 2.5mM EDTA, with phenylmethylsulfonyl fluoride added just prior use to […] from a 0.5 M stock in DMSO:ethanol).
as §1

[2] = molecular target: T3, delta receptors, rat brain (Rattus norvegicus, UniProt P33533); assay: GTP[γ]35S binding functional assay, homogenised rat brain membranes
T3 construct: from tissue; host or cells: rat brain homogenate
T3 sequence (P33533 whole entry): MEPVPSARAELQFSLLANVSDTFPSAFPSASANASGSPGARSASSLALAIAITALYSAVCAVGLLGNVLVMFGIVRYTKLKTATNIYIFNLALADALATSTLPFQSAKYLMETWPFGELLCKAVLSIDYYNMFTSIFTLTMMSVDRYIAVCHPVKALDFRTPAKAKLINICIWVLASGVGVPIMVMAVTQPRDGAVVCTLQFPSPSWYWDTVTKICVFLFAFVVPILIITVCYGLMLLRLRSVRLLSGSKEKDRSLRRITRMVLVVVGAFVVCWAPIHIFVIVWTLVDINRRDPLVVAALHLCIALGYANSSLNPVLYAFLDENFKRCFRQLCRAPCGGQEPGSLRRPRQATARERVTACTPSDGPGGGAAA
Protocol: as §2, §1

Row | SMILES | Emax (cloned human δ receptor) [%] | Emax [1] [%] | Emax [2] [%]
1 | CCN(CC)C(=O)c1ccc(C(=C2CCN(Cc3ccoc3)CC2)c2cccc3cccnc23)cc1 [Example 5, N,N-diethyl-4-[[1-(3-furylmethyl)-4-piperidinylidene](8-quinolinyl)methyl]benzamide] | 99 | 147 | 135
2 | CCN(CC)C(=O)c1ccc(C(=C2CCN(Cc3ccncc3)CC2)c2cccc3cccnc23)cc1 [Example 10] | 118 | 110 | 109
3 | CCN(CC)C(=O)c1ccc(C(=C2CCN(Cc3ccsc3)CC2)c2cccc3cccnc23)cc1 [Example 6, N,N-diethyl-4-{8-quinolinyl[1-(3-thienylmethyl)-4-piperidinylidene]methyl}benzamide] | 123 | 140 | 135
4 | CCN(CC)C(=O)c1ccc(C(=C2CCN(Cc3ccccc3)CC2)c2cccc3cccnc23)cc1 [Example 2, N,N-diethyl-4-(8-quinolinyl-N-benzyl-piperidin-4-ylidene-methyl)-benzamide] | 90.5 | 112 | 104
5 | CCN(CC)C(=O)c1ccc(C(=C2CCN(Cc3ncc[nH]3)CC2)c2cccc3cccnc23)cc1 [Example 8] | 111 | 138 | 148
6 | CCN(CC)C(=O)c1ccc(C(=C2CCN(Cc3ccccn3)CC2)c2cccc3cccnc23)cc1 [Example 7] | 97.6 | 124 | 126
7 | CCN(CC)C(=O)c1ccc(C(=C2CCN(Cc3ccco3)CC2)c2cccc3cccnc23)cc1 [Example 3, N,N-diethyl-4-[[1-(2-furylmethyl)-4-piperidinylidene](8-quinoline)methyl]benzamide] | 103 | 146 | 130
8 | CCN(CC)C(=O)c1ccc(C(=C2CCN(Cc3cccs3)CC2)c2cccc3cccnc23)cc1 [Example 4, N,N-diethyl-4-{8-quinolinyl[1-(2-thienylmethyl)-4-piperidinylidene]methyl}benzamide] | 98.5 | 140 | 120
9 | CCN(CC)C(=O)c1ccc(C(=C2CCN(Cc3c[nH]cn3)CC2)c2cccc3cccnc23)cc1 [Example 9] | 100 | 123 | 112
